Results taken from the supplement of paper PMC11061612.

Tests used:
SIMA (Neuroblastoma) [1] = assay: Bliss excess, mean over the matrix (fraction); higher = more synergy
Outline: (§1)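 Cell lines grown in DMEM/F12 or RPMI with 10% FBS were plated in 1536-well plates and held 24 hours at 37°C, 5% CO2 before 72 hours of exposure to two-drug dose matrices, with DMSO typically at 0.2%. CellTiter-Glo 2.0 luminescence gave viability, which was converted to inhibition. Vehicle wells were set to 0 and blank wells to 1. Combination Emax is the second-highest inhibition in the matrix, and Bliss excess is the observed combination effect minus the expected EA + EB − EA·EB, where EA and EB are the single-agent effects.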

NCI-H2795 (Mesothelioma) = assay: combination Emax (second highest fraction inhibited in the dose matrix, 72 h); higher = more inhibition; extreme values may be limits of the assay
Outline: as §1

[2] = test system: K5 (Thyroid Gland Carcinoma); assay: as above
Outline: as §1

NCI-H2461 (Mesothelioma) = assay: as above
Outline: as §1

[3] = test system: LU-139 (Small Cell Lung Carcinoma); assay: as above
Outline: as §1

[4] = test system: PCI-30 (Head and Neck Carcinoma); assay: as above
Outline: as §1

[5] = test system: CAL-54 (Kidney Carcinoma); assay: as above
Outline: as §1

SIMA (Neuroblastoma) [6] = assay: as above
Outline: as §1

[7] = test system: SW626 (Colorectal Carcinoma); assay: as above
Outline: as §1

[8] = test system: CTB-1 (B-Cell Non-Hodgkin's Lymphoma); assay: as above
Outline: as §1
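For Bliss excess, mean over the matrix in this document: after 72 h of two-drug dosing.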

| SMILES | Bliss excess (SIMA (Neuroblastoma) [1]) | combination Emax (NCI-H2795 (Mesothelioma)) | combination Emax [2] | combination Emax (NCI-H2461 (Mesothelioma)) | combination Emax [3] | combination Emax [4] | combination Emax [5] | combination Emax (SIMA (Neuroblastoma) [6]) | combination Emax [7] | combination Emax [8] |
| --- | --- | --- | --- | --- | --- | --- | --- | --- | --- | --- |
| CN(C)CCCOc1ccc(-c2ccc3ncc4c(c3c2)n(C2CCOCC2)c(=O)n4C)cn1 [AZD0156] + O=C(c1cc(Cc2n[nH]c(=O)c3ccccc23)ccc1F)N1CCN(C(=O)C2CC2)CC1 [Olaparib] (first compound max 3 µM, partner max 3 µM) | 0.0694 | 0.384 | 0.314 | 0.292 | 0.264 | 0.234 | 0.369 | 0.386 | 0.164 | – |
| C=CCn1c(=O)c2cnc(Nc3ccc(N4CCN(C)CC4)cc3)nc2n1-c1cccc(C(C)(C)O)n1 [AZD1775] + C1CN(CCC1(C(=O)N[C@@H](CCO)C2=CC=C(C=C2)Cl)N)C3=NC=NC4=C3C=CN4 [Capivasertib] (first compound max 3 µM, partner max 3 µM) | -0.0416 | 0.408 | 0.603 | 0.67 | 0.733 | 0.477 | 0.782 | 0.94 | 0.583 | – |
| CN(CCO)CC[C@H](CSc1ccccc1)Nc1ccc(S(=O)(=O)NC(=O)c2ccc(N3CCC([C@@H](O)c4ccccc4-c4ccc(Cl)cc4)CC3)cc2)cc1S(=O)(=O)C(F)(F)F [AZD4320] + Cn1cnc2c(F)c(Nc3ccc(Br)cc3Cl)c(C(=O)NOCCO)cc21 [Selumetinib] (first compound max 1 µM, 7x7, partner max 3 µM) | – | 0.827 | 0.679 | 0.328 | 0.928 | 0.224 | 0.311 | – | 0.837 | 0.591 |
| Cc1c2c(nn1C)CSCc1cc(n(C)n1)CSc1cc(c3ccccc3c1)OCCCc1c(C(=O)O)n(C)c3c-2c(Cl)ccc13 [AZD5991] + Cc1cc2ncnn2cc1Nc1ncc2c(n1)n(C1CCOCC1)c(=O)n2C [AZD7648] (first compound max 1 µM, 7x7, partner max 10 µM) | – | 0.941 | 0.351 | 0.422 | 0.243 | 0.323 | 0.367 | 0.543 | 0.224 | 0.472 |
| C[C@@H](c1ccc2nccn2c1)n1nnc2ncc(-c3cnn(C)c3)nc21 [Savolitinib] + Cc1c2c(nn1C)CSCc1cc(n(C)n1)CSc1cc(c3ccccc3c1)OCCCc1c(C(=O)O)n(C)c3c-2c(Cl)ccc13 [AZD5991] (first compound max 1 µM, 7x7, partner max 1 µM) | – | 0.574 | 0.14 | 0.345 | 0.126 | 0.146 | 0.188 | – | 0.221 | – |
| Cn1cnc2c(F)c(Nc3ccc(Br)cc3Cl)c(C(=O)NOCCO)cc21 [Selumetinib] + C=CCn1c(=O)c2cnc(Nc3ccc(N4CCN(C)CC4)cc3)nc2n1-c1cccc(C(C)(C)O)n1 [AZD1775] (first compound max 10 µM, partner max 1 µM) | – | 0.851 | 0.596 | 0.569 | 0.332 | 0.173 | 0.643 | – | 0.724 | – |
| Cn1cnc2c(F)c(Nc3ccc(Br)cc3Cl)c(C(=O)NOCCO)cc21 [Selumetinib] + CC(C)n1c(=O)n(C)c2cnc3cc(F)c(-c4ccc(OCCCN5CCCCC5)nc4)cc3c21 [AZD1390] (first compound max 10 µM, 7x7, partner max 0.3 µM) | – | 0.846 | 0.51 | 0.337 | 0.0318 | 0.203 | 0.346 | – | 0.562 | – |
| Cn1cnc2c(F)c(Nc3ccc(Br)cc3Cl)c(C(=O)NOCCO)cc21 [Selumetinib] + CCN(CCO)CCCOc1ccc2c(Nc3cc(CC(=O)Nc4cccc(F)c4)[nH]n3)ncnc2c1 [AZD2811] (first compound max 10 µM, 7x7, partner max 1 µM) | – | 0.858 | 0.599 | 0.397 | 0.247 | 0.233 | 0.382 | – | 0.624 | – |
| Cn1cnc2c(F)c(Nc3ccc(Br)cc3Cl)c(C(=O)NOCCO)cc21 [Selumetinib] + C[C@@H]1COCCN1C2=NC(=NC(=C2)C3(CC3)[S@](=N)(=O)C)C4=C5C=CNC5=NC=C4 [AZD6738] (first compound max 10 µM, 7x7, partner max 10 µM) | – | 0.855 | 0.689 | 0.571 | 0.053 | 0.371 | 0.616 | – | 0.681 | – |
| CC(=O)Nc1cccc(-n2c(=O)n(C3CC3)c(=O)c3c(Nc4ccc(I)cc4F)n(C)c(=O)c(C)c32)c1 [Trametinib] + Cc1nc(-c2cn3c(n2)-c2ccc(-c4cnn(C(C)(C)C(N)=O)c4)cc2OCC3)n(C(C)C)n1 [Taselisib] (first compound max 1 µM, 7x7, partner max 10 µM) | – | 1 | 1 | 0.587 | 0.143 | 0.627 | 0.763 | – | 0.75 | 0.416 |
